Structures can show the parent of a compound that is named as a salt.
Tests used:
[1] = target: T1, platelet thromboxane synthetase (Homo sapiens, UniProt P24557); assay: Inhibition of platelet thromboxane synthetase (14C-arachidonic acid incubated with washed platelet suspension, TLC); type: cell-based; details: for IC50: 14C-arachidonic acid, 10 min, 37° C., pH 7.5, read-out: 50% inhibitory concentration (IC50)
T1 construct: endogenous in cells; host or cells: washed platelets from platelet-rich plasma of venous blood
T1 sequence (P24557 1-533): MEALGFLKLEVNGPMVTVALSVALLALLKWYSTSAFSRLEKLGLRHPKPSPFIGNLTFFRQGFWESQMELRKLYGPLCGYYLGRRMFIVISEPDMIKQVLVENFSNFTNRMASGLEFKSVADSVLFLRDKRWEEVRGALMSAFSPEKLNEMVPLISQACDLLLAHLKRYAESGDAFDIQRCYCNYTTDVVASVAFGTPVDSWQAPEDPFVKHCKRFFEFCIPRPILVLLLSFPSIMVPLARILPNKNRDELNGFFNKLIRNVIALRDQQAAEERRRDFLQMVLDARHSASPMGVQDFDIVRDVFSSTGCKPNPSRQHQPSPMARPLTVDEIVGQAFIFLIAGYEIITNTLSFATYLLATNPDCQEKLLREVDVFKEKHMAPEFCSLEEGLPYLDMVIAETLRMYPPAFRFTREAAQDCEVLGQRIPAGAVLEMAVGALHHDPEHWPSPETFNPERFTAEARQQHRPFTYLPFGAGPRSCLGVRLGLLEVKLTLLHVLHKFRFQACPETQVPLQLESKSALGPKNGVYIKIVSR
Experimental: 1.1 Inhibition of platelet thromboxane synthetase
Platelet rich plasma (PRP) is prepared by centrifugation of venous blood at 150 g×10 min. The platelets are sedimented at 2000 g×20 min. and washed in a tris-HCl buffer at pH 7.5 (15 mM) containing EDTA (1.5 mM), NaCl, (150 mM) and KCl (5 mM). The platelet pellet is then suspended in a volume of tris-HCl (50 mM) at pH 7.5 corresponding to one-half the original PRP volume. Aliquots of platelet suspension (0.5 ml) are incubated with 1 μg ^14 C-arachidonic acid (specific activity=50 mCi/mmole) as the Na salt for 10 min. at 37° C. in the presence or the absence of test material. On completion of the reaction, the incubate is cooled to 0°-4° C., made acidic and salted by addition of citric acid and NaCl and then extracted with 2×2 ml ethyl acetate. A PGE2 standard is added to the extract which, after evaporation to dryness, is submitted to a bidimensional chromatography over a thin layer of silica (Merck F 254) in the systems: (1) benzene/dioxan/acetic acid (60:30:3); (2) chloroform/methanol/acetic acid/water (90:8:1:0.8).
The PGE2 standard is visualized with phosphomolybdic acid in the hot. The radioactivity corresponding to the metabolites of arachidonic acid is measured with a Berthold scanner. […]

[2] = Acute toxicity, LD50 on intraperitoneal administration to Swiss mice; details: mouse, in vivo, ip, mean ± 5% confidence interval
Description: (§1) In Table VI are set forth results of the determination of the LD50 of Compound A on intraperitoneal administration to Wistar rats and Swiss mice.

[3] = Acute toxicity, LD50 on intraperitoneal administration to Wistar rats; details: rat, in vivo, ip, mean ± 5% confidence interval
Description: as §1

[4] = system: arachidonic acid-induced platelet aggregation; assay: Ex vivo platelet aggregation in rabbits (arachidonic acid-induced); set-up: species or system rabbit; details: 5 mg/kg subcutaneous, two consecutive days, 2 hrs after second administration, arachidonic acid 2 mM
Experimental: 2.1 Ex vivo platelet aggregation in rabbits
Groups of 3 male rabbits are treated subcutaneously for two consecutive days and their plasma is taken two hrs after the second administration. Arachidonic acid-induced (2 mM) platelet aggregation is measured by the turbidimetric method according to Born.

[5] = Bleeding time (ear) in rabbits; type: in vivo, rabbit; details: 5 mg/kg subcutaneous, mean ± standard deviation
Experimental: 2.2 Bleeding time (ear) in rabbits
Groups of 3 male rabbits are treated subcutaneously with the test materials. Bleeding time (BT) is determined just before, and then 2 hours and 4 hours after their administration according to a standard procedure, by a "blind" acting experimenter.

[6] = system: collagen-induced platelet aggregation; assay: Inhibition of collagen-induced platelet aggregation; type: cell-based; details: Homo sapiens, collagen 20 μg, control 100
Experimental: (§2) 3--Inhibition of collagen-induced platelet aggregation and determination of the inhibition of thromboxane synthesis.
(§3) Venous blood sampled from volunteers is collected on sodium citrate. The platelet rich plasma (PRP) is prepared by centrifugation at 150 g×10 min.
(§4) 300 μl PRP are incubated in siliconized tubes in an aggregometer in the presence or the absence of test material dissolved in 100 μl buffer, and 20 μg collagen (Stago) are then added. Platelet aggregation is recorded by the decrease of the optical density. After 4 minutes, an acetylsalicylic acid solution (2×10^-4 M final) is added to block the synthesis of prostanoids, and thromboxane B2 is titrated in the liquid phase of the incubate by radioimmunoassay.

thromboxane synthesis = assay: Inhibition of thromboxane synthesis in collagen-stimulated PRP (thromboxane B2 radioimmunoassay); type: cell-based, human; details: collagen 20 μg, control 900
Experimental: as §2, §3, §4

Q: With `CCCCCC(O)/C=C/n1ccnc1` (racemic) [Compound A, (E)-1-(3-hydroxy-octen-1-yl)imidazole (racemic)] as the compound, how does the IC50 ([1]; platelet suspension) read?
A: The IC50 was 2500 nM.

Q: What about the LD50 ([2]; F) of the same compound?
A: The LD50 was 164 ± 6 mg/kg.

Q: And the LD50 ([2]; M)?
A: The LD50 was 166 ± 7 mg/kg.

Q: What about the LD50 ([3]; F) of the same compound?
A: The LD50 was 250 ± 16 mg/kg.

Q: What about the LD50 ([3]; M) of the same compound?
A: Its LD50 is 270 ± 12 mg/kg.

Q: What about the Deaggregation rate ([4]; controls 5) of the same compound?
A: Its Deaggregation rate is 3 arbitrary units.

Q: And the Maximum aggregation ([4]; controls 40)?
A: The Maximum aggregation was 28 % of maximum aggregation.

Q: And the Aggregation rate ([4]; controls 56)?
A: The Aggregation rate was 32 arbitrary units.

Q: And the “Bleeding time, Time 2 hours” value ([5]; 2 hours after administration, controls 85 ± 31)?
A: The value was 165 ± 38 s.

Q: What about the “Bleeding time, Time 4 hours” value ([5]; 4 hours after administration, controls 87 ± 29) of the same compound?
A: The value was 102 ± 19 s.

Q: And the “Bleeding time, Time 0” value ([5]; just before administration, controls 70 ± 23)?
A: The value was 80 ± 27 s.

Q: Which IC50 ([1]; platelet suspension) does the source give for `CCCCCC(/C=C/n1ccnc1)OC(=O)c1ccccc1` (stereo not drawn) [C] here?
A: The IC50 was 1500 nM.

Q: With `CCCCCC(/C=C/n1ccnc1)OC(=O)c1cccnc1` (stereo not drawn) [Compound B, (E)-1-(3-hydroxy-octen-1-yl)imidazole nicotinic ester dihydrochloride] as the compound, how does the activity at 10 µM ([6]; 10^-5 M) read?
A: The activity at 10 µM was 7%.

Q: What about the activity at 1 µM ([6]; 10^-6 M) of the same compound?
A: Its activity at 1 µM is 50%.

Q: And the IC50 ([1]; platelet suspension)?
A: The IC50 was 1000 nM.

Q: What about the “T × B2 formed” value (thromboxane synthesis; 10^-5 M) of the same compound?
A: The value was 100 pmole/ml PRP.

Q: And the “T × B2 formed” value (thromboxane synthesis; 10^-6 M)?
A: Its value is 400 pmole/ml PRP.

Q: Which IC50 ([1]; platelet suspension) does the source give for `CCCCCC(/C=C/n1ccnc1)OC(C)=O` (stereo not drawn) [D] here?
A: The IC50 was 1500 nM.

Q: With `CCCCCC(=O)OC(/C=C/n1ccnc1)CCCCC` (stereo not drawn) [E] as the compound, how does the IC50 ([1]; platelet suspension) read?
A: Its IC50 is 1500 nM.

Q: Which IC50 ([1]; platelet suspension) does the source give for `CCCCCC(/C=C/n1ccnc1)OCc1ccccc1` (stereo not drawn) [F] here?
A: Its IC50 is 1000 nM.

Q: For `CCCCCC(/C=C/n1ccnc1)OCc1ccccn1` (stereo not drawn) [G, (E)-1-(3-hydroxy-octen-1-yl)imidazole 2-pyridyl methyl ether fumarate], which IC50 ([1]; platelet suspension) is on record?
A: The IC50 was 1500 nM.

Q: With `c1c[nH]cn1` [Imidazole, imidazole] as the compound, how does the “inhibition of the formation of thromboxane A2 (FIG. 2)” value ([1]; measured by its stable degradation product) read?
A: Its value is “inhibits the formation of thromboxane A2”.

Q: And the “PGE2 formed concomitantly to thromboxane inhibition (FIG. 2)” value ([1]; platelet suspension)?
A: The value was “increasing amounts of PGE2 are formed”.

Q: And the IC50 ([1]; platelet suspension)?
A: The IC50 was 50000 nM.
